Measured values from patent publication US11713293B2, “Substituted biaryl sulfonamides and the use thereof” (NovoMedix, LLC, priority 2012, dated 2023).
Read-outs that look alike come from different tables or passages of the source.

Columns and labels:
[1] = test system: m7GpppN-capped luciferase mRNA reporter; assay: In vitro HeLa cell extract translation system, translation inhibition; type: biochemical; conditions: at 10 μM
Method: In one embodiment, the compounds provided herein were assayed for translation inhibition activity using an in vitro HeLa cell extract translation system with an m7GpppN-capped luciferase mRNA reporter.

[2] = test system: purified luciferase protein; assay: Inhibition of purified luciferase protein (specificity control); type: biochemical; conditions: at 100 μM
MDA-MB-231 breast tumors = assay: Tumor growth inhibition in MDA-MB-231 xenograft model for breast cancer; type: in vivo, Mouse/nude
Method: In one embodiment, the effects of a compound provided herein on tumor growth in a mouse animal model were evaluated. In specific embodiments, the mouse animal model was the MDA-MB-231 xenograft model for breast cancer. Studies were performed to evaluate the effect of a compound provided herein on the growth of MDA-MB-231 breast tumors in mice. The test system that was used is summarized below:
Animals were housed 10 mice per cage in micro-isolators, with sterile corn cob bedding, food, and water. Mice were acclimated for 3 days and given food and tap water ad libitum. Animals were examined prior to initiation of the study to assure adequate health and suitability. […] During the course of the study, 12-hour light/12-hour dark cycle were maintained. A nominal temperature range of 20-23° C. with a relative humidity between 30% and 70% was maintained. LabDiet 5053-certified PicoLab Rodent Diet and sterile water were provided ad libitum during the study.
Exemplary Protocol: Ten mice per group were inoculated s.c. on the left flank with 5×10^6 MDA-MB-231 cells. When tumors reached a mean volume of approximately 100 mm^3, animals began treatment with a compound provided herein (See Table 5). […] Tumors were evaluated every Monday, Wednesday and Friday, body weights and condition were evaluated on a daily basis. […]
Tumor Measurement: Tumors were monitored daily. If, during a daily evaluation, an animal's tumor appeared to have exceeded 1500 mm^3, the tumor was measured; and animals with tumors greater than 1500 mm^3 and/or that had become necrotic and/or hindered movement were euthanized. Tumors were measured twice weekly by measuring each tumor in 2 dimensions, along the largest dimension (length, L) and perpendicular to this dimension (width, W). Tumor weights were calculated using the standard formula: (L×W^2)/2. The mean tumor weight and standard error of the mean were calculated for each group at each time point. […]
Animal Weight: All animals were weighed twice weekly throughout the study. Group weight change was expressed as a daily group mean weight. […]

[3] = test system: triple negative breast cancer cell line MDA-MB-231; assay: Cell-based IC50 assay, adherent cells, MDA-MB-231; conditions: Homo sapiens, 72 hours, CellTiter 96 Aqueous One
Method: (§1) In one embodiment, the IC50s of the compounds provided herein were determined in cell-based assays using adherent cells. In one embodiment, the activity of the compounds provided herein were determined in a cell-based assay using the triple negative breast cancer cell line MDA-MB-468. In one embodiment, the activity of the compounds provided herein were determined in a cell-based assay using the triple negative breast cancer cell line MDA-MB-231. In one embodiment, the activity of the compounds provided herein were determined in a cell-based assay using the triple negative breast cancer cell line 4T1.
(§2) In one embodiment, the cell-based assay may be carried out as provided herein. On day 0, cells were seeded at 20,000 cells per well in 100 μL of media into individual wells of a 96-well tissue culture plate. The next day, compounds were diluted to twice the desired final concentration and added in 100 μL of media for a final volume of 200 μL. Standard solutions for each compound were prepared at 1000× concentration in DMSO. The highest concentration was […]. Serial 1:1 dilutions were made from there for a 6- or 9-point curve (e.g., 20 mM, 10 mM, 5 mM, etc). Compounds were then diluted 1:500 in media, and 100 μL of the resulting solution was added to each well for a final dilution of 1:1000. Each concentration of compound was tested in triplicate. Cells were incubated at 37° C. with 5% CO2. After 72 hours, 20 μL of CellTiter 96 Aqueous One Solution Cell Proliferation Assay (Promega) was added to each well. Cells were placed back in the incubator, and the absorbance at 490 nm was read after 2-3 hours. The concentration of compound that decreased the number of metabolically active cells by 50% was determined and reported as the IC50. “Percent Viability” was determined by subtracting the average background value (media only) and expressed as a ratio to the average value obtained from cells treated with only DMSO.

[4] = PK study and oral bioavailability, mouse; type: in vivo; conditions: plasma 0 to 6 h
[5] = test system: triple negative breast cancer cell line MDA-MB-468; assay: Cell-based IC50 assay, adherent cells, MDA-MB-468; conditions: Homo sapiens, 72 hours, CellTiter 96 Aqueous One, metabolically active cells decreased by 50%
Method: as §1, §2
The IC50s of the compounds provided herein and some reference compounds were determined in cell-based assay using triple negative breast cancer cell line MDA-MB-468.

cyclin D3 = assay: Cyclin D3 levels by Western blot in MDA-MB-231 cells; type: cell-based; conditions: 10 μM, at 18 and 24 h
Method: Cyclin D is one of the most commonly overexpressed genes in breast cancer and high levels correlate with poor prognosis. Furthermore, cyclin D overexpression is correlated with triple-negative basal-like tumors. In one embodiment, the effects of a compound provided herein on cyclin D overexpression were evaluated. […] The density ratio of the cyclin D3 band to respective beta-actin band was determined by Western blot analysis and normalized to DMSO (100%).

[6] = Plasma and tumor concentrations at sacrifice in MDA-MB-231 xenograft mice; type: in vivo, Mouse/nude
Method: At study termination, mice still undergoing treatment were given a final dose of compound and sacrificed 2 h later. Average concentrations of compounds in plasma and tumor were determined.

[7] = test system: triple negative breast cancer cell line 4T1; assay: Cell-based IC50 assay, adherent cells, 4T1; conditions: 72 hours, CellTiter 96 Aqueous One
Method: as §1
In one embodiment, the cell-based assay may be carried out as provided herein. On day 0, cells were seeded at 20,000 cells per well in 100 μL of media into individual wells of a 96-well tissue culture plate. The next day, compounds were diluted to twice the desired final concentration and added in 100 μL of media for a final volume of 200 μL. Standard solutions for each compound were prepared at 1000× concentration in DMSO. The highest concentration was 30 mM. […] Cells were placed back in the incubator, and the absorbance at 490 nm was read after 2-3 hours. […] “Percent Viability” was determined by subtracting the average background value (media only) and expressed as a ratio to the average value obtained from cells treated with only DMSO.

[8] = test system: highly structured 5′-UTR HB3 (triple stem loop) reporter; assay: Translation of mRNAs with highly structured 5′-UTR versus unstructured
Method: Many proteins that drive cancer growth and survival (including the cyclins, c-myc, and Pim-1) have secondary structures in the 5′-UTR of their mRNA that limit the rate of translational initiation. In one embodiment, the effects of a compound provided herein on translation of such mRNAs relative to mRNAs without highly structured 5′-UTRs were evaluated.

inhibition of purified luciferase protein [2]: no inhibition
IC50 [3]: 13 µM
C0 ([4]; IV 5 mg/kg, read-out: IV Administration (5 mg/kg) C0): 54600 ng/mL
half-life ([4]; IV 5 mg/kg, read-out: IV Administration (5 mg/kg) T½ (converted)): 2.1 h
C0 ([4]; PO 25 mg/kg, read-out: PO Administration (25 mg/kg) C0): 5150 ng/mL
half-life ([4]; PO 25 mg/kg, read-out: PO Administration (25 mg/kg) T½ (converted)): 1.5 h
IC50 [5]: 5 µM
levels in plasma and tumor samples after discontinued treatment ([6]; mice that discontinued treatment on Day 31, at study termination): detectable levels
concentration at 14 days ([6]; nude, mouse, plasma, intraperitoneal, treated until the end: No, none after day 31, sacrificed day 45, read-out: Ave. Plasma Conc.): 50 ± 20 nM
concentration at 2 h ([6]; nude, mouse, plasma, intraperitoneal, treated until the end: Yes, 50/25 mg/kg, sacrificed day 45, 2 h after final dose, read-out: Ave. Plasma Conc.): 2330 ± 270 nM
Ave. Tumor Conc. ([6]; treated until the end: No, none after day 31, sacrificed day 45): 0.07 ± 0.04 μM/g of tumor tissue
Ave. Tumor Conc. ([6]; treated until the end: Yes, 50/25 mg/kg, sacrificed day 45, 2 h after final dose): 1.25 ± 0.09 μM/g of tumor tissue
IC50 [7]: 15 µM
SMILES: CC(C)c1cc(C(C)C)c(S(=O)(=O)Nc2cc(C(F)(F)F)cc(C(F)(F)F)c2)c(C(C)C)c1 [Compound 1, N-[3,5-Bis(trifluoromethyl)phenyl]-2,4,6-triisopropyl-benzenesulfonamide]
inhibition of luciferase activity vs. DMSO [1]: 97.4%
mean tumor volume at Day 31 (MDA-MB-231 breast tumors; qd IP 50 mg/kg, reduced to 25 mg/kg on day 7, vehicle group 898±260 mm^3): 276±119 mm^3
mean weight gain (MDA-MB-231 breast tumors; qd IP 50/25 mg/kg, Days 1 to 31, vehicle group 4.2%): 0.1%
tumor growth after drug withdrawal (MDA-MB-231 breast tumors; within 10 days of withdrawal, from day 32): tumor growth did not resume
cyclin D3 levels (density ratio to beta-actin, normalized to DMSO) (cyclin D3): decrease in cyclin D3 levels
inhibition of highly structured 5′-UTR reporter relative to mRNAs without highly structured 5′-UTRs [8]: preferential inhibition
